Assay results as given in paper PMC12005229, “Final results from the phase Ia/Ib study of the novel bromodomain and extra-terminal domain inhibitor, BI 894999, in patients with advanced solid tumors or diffuse large B-cell lymphoma” (ESMO Open, 2025).

Tests used:
[1] = review of non-Good Laboratory Practice preclinical assays for cardiac toxicity; conditions: review prompted by elevated troponin T
From the text: Some patients experienced elevated troponin T levels, leading to a review of troponin T levels, electrocardiogram data, clinical summaries, and non-Good Laboratory Practice preclinical assays. […] This also corresponded with a lack of cardiotoxicity reported in preclinical studies in animals[17] and this was not a toxicity previously reported with BET inhibitors.[35] It was concluded that the cause of troponin T elevation may be multifactorial, but not clinically significant to preclude further clinical development.[17]

[2] = test system: patients with advanced solid tumors (SCLC, CRC, mCRPC, NUT carcinoma); test: phase Ib expansion: tumor response (RECIST 1.1), PFS, OS; format: in vivo, human; conditions: for Best overall response: complete response / Best overall response: not evaluable / Best overall response: partial response / Best overall response: progressive disease / Best overall response: stable disease / Disease control / Median PFS / Objective response / Median OS: phase Ib
Description: PFS was measured for the period from the start of treatment to the occurrence of progressive disease or death. Tumor response was measured using RECIST 1.1[28] for patients with solid tumors and RECIL 2017[29] for those with DLBCL. OS was assessed in patients with NUT carcinoma; the OS status was to continue until 12 months after the end of the study.
Supplementary Table 1. […]
• Objective response (OR), defined as complete response (CR) or partial response (PR) with tumor assessment during treatment period for each schedule according to Response Evaluation Criteria in Solid Tumors (RECIST) version 1.1. For DLBCL patients, a minor response according to Response Evaluation Criteria in Lymphoma (RECIL) 2017 was not part of an OR […]
• Progression-free survival (PFS), defined from date of start of BI 894999 to the date of objective disease progression or death, whichever was earlier, with tumor assessment every 2 cycles (every 6 weeks for Schedule B if no delays or as close as possible to the end of the second of the 2 cycles of treatment if there was a delay) during the treatment period
Radiological PFS with tumor assessment by bone scan every 4 cycles for mCRPC patients with non-measurable disease by RECIST 1.1 […]
• Overall survival in patients with NUT carcinoma. This was for patients in the trial after approval of […]
The overall survival status was to continue until 12 months after the end of trial […]
AUC0–24, area under the plasma concentration–time curve over the 24-hour dosing interval; AUCτ, ss , area under the plasma concentration–time curve over the dosing interval τ at steady state; AE, adverse event; Cmax, maximal exposure; Cma x , s s , maximal exposure at steady state; DLBCL, diffuse large B- cell lymphoma; DLT, dose-limiting toxicity; mCRPC, metastatic castration-resistant prostate cancer; NUT, nuclear protein in […]

For `CNc1nc(-c2nc3ccc(N4CCN(C)CC4)cc3n2Cc2ccccc2)cn2c(C)nnc12` [BI 894999], the “preclinical evidence of cardiac toxicity” value [1] was “no preclinical evidence of potential cardiac toxicity”, the “patients with SD” value ([2]; CRC) was 2 n and the “observed objective response rate” value ([2]; NUT carcinoma) was less than 10%. The patients not assessable ([2]; NUT carcinoma, 42 patients) was 19.0%, the “patients with SD” value ([2]; NUT carcinoma, 42 patients) was 31.0% and the “patients with complete response” value ([2]; NUT carcinoma, 42 patients) was 1 n. The “patients with confirmed CR” value ([2]; NUT carcinoma, 42 patients) was 2.4%, the “patients with disease control” value ([2]; NUT carcinoma, 42 patients) was 16 patients and the “patients with progressive disease” value ([2]; NUT carcinoma, 42 patients) was 42.9%. For the same compound, the patients with responses ([2]; NUT carcinoma, 42 patients) was 7.1%, the “duration of response (DOR) of confirmed CR” value ([2]; NUT carcinoma, one patient) was 253 days and the “duration of response (DOR) of confirmed PR” value ([2]; NUT carcinoma, one patient) was 588 days. The “patients with SD” value ([2]; SCLC) was 1 n, the “patients with SD” value ([2]; mCRPC) was 2 n and the “duration of response (DOR) of confirmed PR” value ([2]; mCRPC, one patient) was 46 days. For the same compound, the patients not assessable ([2]; other solid tumor types n = 37) was 24.3%, the “patients with SD” value ([2]; other solid tumor types n = 37) was 13.5% and the “patients with confirmed PR (mCRPC)” value ([2]; other solid tumor types n = 37) was 2.7%. For the same compound, the “patients with progressive disease” value ([2]; other solid tumor types n = 37) was 59.5%, the “patients with confirmed CR (BOR)” value ([2]; phase Ib n = 79) was 1.3% and the “Best overall response: complete response” value ([2]; CRC) was 0 (0.0) n (%). For the same compound, the “Best overall response: not evaluable” value ([2]; CRC) was 2 (14.3) n (%), the “Best overall response: partial response” value ([2]; CRC) was 0 (0.0) n (%) and the “Best overall response: progressive disease” value ([2]; CRC) was 10 (71.4) n (%). For the same compound, the “Best overall response: stable disease” value ([2]; CRC) was 2 (14.3) n (%), the Disease control ([2]; CRC) was 2 (14.3) n (%) and the “Median PFS” value ([2]; CRC) was 5.6 weeks. For the same compound, the Objective response ([2]; CRC) was 0 (0.0) n (%), the “Best overall response: complete response” value ([2]; NUT carcinoma (Schedule B)) was 0 (0.0) n (%) and the “Best overall response: not evaluable” value ([2]; NUT carcinoma (Schedule B)) was 3 (15.0) n (%). The “Best overall response: partial response” value ([2]; NUT carcinoma (Schedule B)) was 1 (5.0) n (%), the “Best overall response: progressive disease” value ([2]; NUT carcinoma (Schedule B)) was 9 (45.0) n (%) and the “Best overall response: stable disease” value ([2]; NUT carcinoma (Schedule B)) was 7 (35.0) n (%). The Disease control ([2]; NUT carcinoma (Schedule B)) was 8 (40.0) n (%), the “Median OS” value ([2]; NUT carcinoma (Schedule B)) was 6.6 weeks and the “Median PFS” value ([2]; NUT carcinoma (Schedule B)) was 6.9 weeks. For the same compound, the Objective response ([2]; NUT carcinoma (Schedule B)) was 1 (5.0) n (%), the “Best overall response: complete response” value ([2]; NUT carcinoma (Schedule C)) was 1 (4.5) n (%) and the “Best overall response: not evaluable” value ([2]; NUT carcinoma (Schedule C)) was 5 (22.7) n (%). The “Best overall response: partial response” value ([2]; NUT carcinoma (Schedule C)) was 1 (4.5) n (%), the “Best overall response: progressive disease” value ([2]; NUT carcinoma (Schedule C)) was 9 (40.9) n (%) and the “Best overall response: stable disease” value ([2]; NUT carcinoma (Schedule C)) was 6 (27.3) n (%). The Disease control ([2]; NUT carcinoma (Schedule C)) was 8 (36.4) n (%), the “Median OS” value ([2]; NUT carcinoma (Schedule C)) was 15.4 weeks and the “Median PFS” value ([2]; NUT carcinoma (Schedule C)) was 7.8 weeks. The Objective response ([2]; NUT carcinoma (Schedule C)) was 2 (9.1) n (%), the “Median OS” value ([2]; NUT carcinoma total) was 15.4 weeks and the “Best overall response: complete response” value ([2]; SCLC) was 0 (0.0) n (%). For the same compound, the “Best overall response: not evaluable” value ([2]; SCLC) was 3 (25.0) n (%), the “Best overall response: partial response” value ([2]; SCLC) was 0 (0.0) n (%) and the “Best overall response: progressive disease” value ([2]; SCLC) was 8 (66.7) n (%). The “Best overall response: stable disease” value ([2]; SCLC) was 1 (8.3) n (%), the Disease control ([2]; SCLC) was 1 (8.3) n (%) and the “Median PFS” value ([2]; SCLC) was 5.6 weeks. For the same compound, the Objective response ([2]; SCLC) was 0 (0.0) n (%), the “Best overall response: complete response” value ([2]; mCRPC) was 0 (0.0) n (%) and the “Best overall response: not evaluable” value ([2]; mCRPC) was 4 (36.4) n (%). The “Best overall response: partial response” value ([2]; mCRPC) was 1 (9.1) n (%), the “Best overall response: progressive disease” value ([2]; mCRPC) was 4 (36.4) n (%) and the “Best overall response: stable disease” value ([2]; mCRPC) was 2 (18.2) n (%). The Disease control ([2]; mCRPC) was 3 (27.3) n (%), the “Median PFS” value ([2]; mCRPC) was 11.9 weeks and the Objective response ([2]; mCRPC) was 1 (9.1) n (%). The “Best overall response: complete response” value ([2]; total) was 1 (1.3) n (%), the “Best overall response: not evaluable” value ([2]; total) was 17 (21.5) n (%) and the “Best overall response: partial response” value ([2]; total) was 3 (3.8) n (%). For the same compound, the “Best overall response: progressive disease” value ([2]; total) was 40 (50.6) n (%), the “Best overall response: stable disease” value ([2]; total) was 18 (22.8) n (%) and the Disease control ([2]; total) was 22 (27.8) n (%). The “Median PFS” value ([2]; total) was 6.9 weeks and the Objective response ([2]; total) was 4 (5.1) n (%).
